Experimental findings from patent publication US10960084B2, “Modulation of fluid intake” (California Institute of Technology, priority 2018, dated 2021) are described below.

Entries after “also recorded” stand apart in the source; their conditions may differ.

Assay [1] has as its system SFO^nNOS neurons. The assay can be described thus: Salt/Mannitol loading with fiber photometry of SFO^nNOS/MnPO^nNOS neurons and drinking. It counts as in vivo, mice. How it is done: Salt/Mannitol Loading Experiments: 150 μL/300 μL of 2 M NaCl or 300 μL of 2 M Mannitol was injected intraperitoneally at the end of the acclimatization period. For FIGS. 1P-T and FIGS. 7P-S, CNO or vehicle (water) was injected 10 min prior to NaCl/Mannitol injection. We measured bulk fluorescence signals using fiber photometry as previously described^[26]. Briefly, 490 nm and 405 nm LEDs ([…] and […]) were collimated and delivered to the brain. The light intensity was kept less than 100 μW during all recordings. The fluorescence signal was then focused onto a femtowatt photoreceiver (Newport, Model 2151). The modulation and demodulation were done with an RP2.1 real time processor (Tucker-Davis Technologies) running custom software. The licks from the lickometer were simultaneously recorded as real-time TTL signals to the RP2.1. Fluorescence changes were analyzed using custom MATLAB (MathWorks) code as described previously^[26]. Data were extracted and subjected to a low pass filter at 1.8 Hz. A linear function was used to scale up the 405 nm channel signal to the 490 nm channel signal to get the fitted 405 nm signal. The resultant ΔF/F was calculated as (raw 490 nm signal-fitted 405 nm signal)/(fitted 405 nm signal). For brief access tests, the Area Under Curve (ΣΔFduring) was quantified by integrating the fluorescence signals during the bout. For all bouts, the mean fluorescence for 30 s prior to the first lick was calculated and subtracted from the entire session. ΔF changes (ΔFpost-ΔFpre) were calculated by subtracting the mean fluorescence signal during the 2-s period before the first lick from the mean signal during the 2-s at 1 min after the bout. For displaying traces, the fluorescence data was time-binned by a factor of 2.5 times the sampling frequency and down-sampled to 1 Hz. For long-term tests, the Area Under Curve was calculated for 2.5 min after the start of the bout. […] For […]), the first bout at the start of the session and the last bout within 10 min of access were used. The AUC for the PSTHs were calculated during the first or the last 15 seconds.

In assay [2] the test system is mCherry control animals. The assay is described as follows: mCherry controls for acute inhibition (CNO without hM4Di). It counts as in vivo, mice. Here is the method: Long-term access assays: Optogenetic Testing—For FIGS. 1L-N and FIGS. 7L-O, satiated mice were given ad libitum access to water for 20 min with photostimulation. Photostimulation was delivered for 1-s followed by 3-s intervals throughout the behavioral sessions. For FIGS. 2J-M and FIGS. 11C-E, mice were given access to water for 20 min after 24 h water-restriction, and photostimulation was delivered for the first 10 min. For feeding assays (FIGS. 2J-M), animals were single-housed in Biodaq cages after 24 h food-restriction, and chow intake was measured for 20 min with or without light stimulation. For acute inhibition experiments, mice were given access to 150 mM NaCl (FIGS. 5D-E, FIGS. 13E-F), water (FIGS. 1L-N, FIGS. 7L-O, FIGS. 13A-D, FIGS. 13G-H) for 20-30 min after 24 h water-restriction or 300 mM sucrose (FIGS. 1L-N, FIGS. 7L-O) after food-restriction. For all acute inhibition experiments, CNO was injected at 10 mg/kg body weight, 30 min prior to the start of the behavior session. For acute activation experiments, CNO was injected at 1 mg/kg body weight (FIGS. 12L-M), 30 min prior to the start of the behavior session. […] The weight of the cup was measured before and after the behavior session. […] The entire session was recorded using a camera at 30 fps and ingestion episodes were manually annotated.

The subject of assay [3] is hM4Di-expressing MnPO^nNOS neurons. The assay is described as follows: Slice current-clamp recording, CNO on hM4Di-expressing MnPO^nNOS neurons. It counts as cell-based, mice. The following applies: brain slices. The text has this: Procedures for preparation of acute brain slices and recordings with optogenetic stimulations were similar to those described previously^[10],[36]. After decapitation, the brain was removed and immersed in ice-cold solution. Coronal slices ([…]) were cut using a vibratome (VT-1200s, Leica) and moved into HEPES-holding solution (NaCl 92, KCl 2.5, NaH2PO4 1.2, NaHCO3 30, HEPES 20, glucose 25, Na-ascorbate 5, Thiourea 2, Na14 pyruvate 3, MgSO4 2, CaCl2 2, pH 7.35). The slices were allowed to recover at 33° C. for 30 min and then held at room temperature ([…]) until use.
While recording, slices were perfused continuously (˜2 mL/min) with artificial cerebrospinal fluid (ACSF-NaCl 124, KCl2.5, NaH2PO4 1.2, NaHCO3 24, glucose 25, MgSO4 1, CaCl2 2) at 25° C. Neurons were visualized and targeted using an upright IR19 DIC microscope (BX51WI, Olympus). […] In order to confirm the PSCs recorded were GABAergic, picrotoxin (150 μM) was applied through the bath in part of the experiments. […] CNO (˜6 μM) was applied by a puff (30 s) from another glass pipette placed ˜50 μm from the recorded cell.

The mark [4] stands for this setting: GCaMP6s fiber photometry, MnPO^nNOS inhibited by CNO.

As to `C[N+]1([O-])CCN(C2=Nc3cc(Cl)ccc3Nc3ccccc32)CC1` [CNO, clozapine-N-oxide], in assay [1] (setting [4]), the “calcium increases / activity of SFO^nNOS neurons by mannitol-induced osmotic stress” value is “unaffected; also recorded: without changing the activity” and the “calcium increases in SFO^nNOS neurons by NaCl-induced osmotic stress” value is on record as “unaffected”. In addition, the “drinking behavior after Mannitol injection” value in assay [1] (hM4Di in MnPO^nNOS, CNO 10 min prior to intraperitoneal Mannitol) is reported as “intensely suppressed drinking responses; also recorded: drastically suppressed drinking behavior”. The “drinking behavior after NaCl injection” value in assay [1] (hM4Di in MnPO^nNOS, CNO 10 min prior to intraperitoneal NaCl) is on record as “intensely suppressed drinking responses; also recorded: drastically suppressed drinking behavior”. The “intake after water or food-restriction” value in assay [2] (AAV-DIO-mCherry in the MnPO of nNOS-Cre animals, 5-s brief access) was “showed no reduction”. Moreover, the “saline or water drinking, CNO vs vehicle” value in assay [2] (mCherry controls in MnPO^GLP1r, water deprived, 30 min) is on record as “No significant difference”. The “neurons in which firing is inhibited” value in assay [3] (CNO application) is on record as 6/6. Moreover, the “firing of hM4Di-expressing MnPO^nNOS neurons” value in assay [3] (brief application of CNO) is reported as “strongly suppressed the firing”.
